# Test results as given in ChEMBL document CHEMBL6103565, “Current strategies in design and synthesis of antifungals hybrid and chimeric diazine derivatives” (Bioorg Med Chem, 2025).
# Assays:
# Type in all cases: functional
# Candida albicans [1] = experiment: Antifungal activity against azole-resistant Candida albicans ATCC 18804 assessed as fungal growth inhibition incubated for 24 hrs by CLSI protocol based broth microdilution method
# Aspergillus niger [2] = experiment: Antifungal activity against Aspergillus niger ATCC 16404 assessed as inhibition of mycelial growth relative to control
# Candida albicans [3] = experiment: Antifungal activity against Candida albicans ATCC 10231 assessed as inhibition of mycelial growth relative to control
# Candida albicans [4] = experiment: Antifungal activity against Candida albicans
# Cryptococcus neoformans [5] = experiment: Antifungal activity against Cryptococcus neoformans
# Candida albicans [6] = experiment: Antifungal activity against azole-resistant Candida albicans ATCC 18804 assessed as reduction in fungal growth by XTT assay
# Candida albicans [7] = experiment: Antifungal activity against azole-resistant Candida albicans ATCC 10231 assessed as reduction in fungal growth by XTT assay
# Aspergillus fumigatus [8] = experiment: Antifungal activity against Aspergillus fumigatus
# [9] = tested on: Talaromyces purpureogenus; experiment: Antifungal activity against Talaromyces purpureogenus assessed as zone of inhibition by disc diffusion method
# Aspergillus niger [10] = experiment: Antifungal activity against Aspergillus niger assessed as zone of inhibition by disc diffusion method
# Aspergillus terreus = experiment: Antifungal activity against Aspergillus terreus assessed as zone of inhibition by disc diffusion method
# Candida albicans [11] = experiment: Antifungal activity against Candida albicans NRRL-Y477 assessed as zone of inhibition by disc diffusion method
# Candida albicans [12] = experiment: Antifungal activity against Candida albicans MTCC 7315 assessed as inhibition of fungal growth incubated for 24 hrs
# Candida albicans [13] = experiment: Antifungal activity against Candida albicans MTCC 227 assessed as inhibition of fungal growth incubated for 24 hrs
# Candida albicans [14] = experiment: Antifungal activity against Candida albicans MTCC 1637 assessed as inhibition of fungal growth incubated for 24 hrs
# Pichia kudriavzevii [15] = experiment: Antifungal activity against Pichia kudriavzevii MTCC 3020 assessed as inhibition of fungal growth incubated for 24 hrs
# Candida albicans [16] = experiment: Antifungal activity against Candida albicans MTCC 3017 assessed as inhibition of fungal growth incubated for 24 hrs
# Candida parapsilosis [17] = experiment: Antifungal activity against Candida parapsilosis MTCC 1744 assessed as inhibition of fungal growth incubated for 24 hrs; details: Lodderomyces parapsilosis
# Candida albicans [18] = experiment: Antifungal activity against Candida albicans MTCC 4748 assessed as inhibition of fungal growth incubated for 24 hrs
# Nakaseomyces glabratus [19] = experiment: Antifungal activity against Candida glabrata MTCC 3019 assessed as inhibition of fungal growth incubated for 24 hrs
# Candida albicans [20] = experiment: Antifungal activity against Candida albicans MTCC 3018 assessed as inhibition of fungal growth incubated for 24 hrs
# Candida albicans [21] = experiment: Antifungal activity against Candida albicans assessed as zone of inhibition
# Aspergillus niger [22] = experiment: Antifungal activity against Aspergillus niger assessed as zone of inhibition
# Candida albicans [23] = experiment: Antifungal activity against azole-resistant Candida albicans ATCC 10231 assessed as fungal growth inhibition incubated for 24 hrs by CLSI protocol based broth microdilution method
# Candida albicans [24] = experiment: Antifungal activity against Candida albicans assessed as reduction in fungal growth incubated for 18 hrs by broth microdilution method
# Aspergillus fumigatus [25] = experiment: Antifungal activity against Aspergillus fumigatus assessed as reduction in fungal growth
# Candida albicans [26] = experiment: Antifungal activity against Candida albicans ATCC 90028 assessed as growth inhibition incubated for 36 hrs by resazurin dye based assay
# Phomopsis = experiment: Antifungal activity against Phomopsis assessed as reduction in fungal growth at 50 ug/ml relative to control
# Botrytis cinerea = experiment: Antifungal activity against Botrytis cinerea assessed as reduction in fungal growth at 50 ug/ml relative to control
# Botryosphaeria dothidea = experiment: Antifungal activity against Botryosphaeria dothidea assessed as reduction in fungal growth at 50 ug/ml relative to control
# Microsporum audouinii = experiment: Antifungal activity against Microsporum audouinii
# Geotrichum candidum = experiment: Antifungal activity against Geotrichum candidum
# Trichophyton rubrum = experiment: Antifungal activity against Trichophyton rubrum assessed as diameter of zone inhibition
# Rhizopus microsporus = experiment: Antifungal activity against Rhizopus microsporus assessed as diameter of inhibition zone
# Candida albicans [27] = experiment: Antifungal activity against Candida albicans assessed as zone of inhibition by disc diffusion method
# Candida albicans [28] = experiment: Antifungal activity against Candida albicans assessed as diameter of inhibition zone
# Saccharomyces cerevisiae [29] = experiment: Antimicrobial activity against Saccharomyces cerevisiae assessed as zone of inhibition
# Nakaseomyces glabratus [30] = experiment: Antifungal activity against Candida glabrata ATCC 90030
# Aspergillus flavus = experiment: Antifungal activity against Aspergillus flavus assessed as zone of inhibition by disc diffusion method
# Saccharomyces cerevisiae [31] = experiment: Antimicrobial activity against Saccharomyces cerevisiae assessed as zone of inhibition by disc diffusion method
# Pichia kudriavzevii [32] = experiment: Antifungal activity against Candida krusei ATCC 6258
# Candida albicans [33] = experiment: Antifungal activity against Candida albicans SC5314 assessed as reduction in fungal growth incubated for 72 hrs by broth microdilution method
# Candida albicans [34] = experiment: Antimicrobial activity against Candida albicans ATCC 64124 assessed as reduction in microbial growth by CLSI protocol based micro-broth dilution method
# Candida albicans [35] = experiment: Antifungal activity against Candida albicans assessed as zone of inhibition by serial dilution and disc diffusion method
# Candida parapsilosis [36] = experiment: Antifungal activity against Candida parapsilosis ATCC 22019; details: Lodderomyces parapsilosis
# Candida albicans [37] = experiment: Antifungal activity against Candida albicans ATCC 10231
# Cryptococcus neoformans [38] = experiment: Antifungal activity against Cryptococcus neoformans assessed as reduction in fungal growth incubated for 24 hrs by broth microdilution method
# Aspergillus niger [39] = experiment: Antifungal activity against Aspergillus niger assessed as diameter of zone inhibition
# Candida albicans [40] = experiment: Antifungal activity against Candida albicans assessed as diameter of zone inhibition
smiles,measurement,setting,value
O=c1ccc(=O)n(-c2nc(-c3cc4c(ccc5ccccc54)oc3=O)cs2)[nH]1,MIC,Candida albicans [1],0.9 mg/L
CCCCCCCC(=O)O[C@@H]1[C@H](OC(=O)CCCCCCC)[C@@H](COC(c2ccccc2)(c2ccccc2)c2ccccc2)O[C@H]1n1ccc(=O)[nH]c1=O,inhibition (INH),Aspergillus niger [2],99%
same,inhibition (INH),Candida albicans [3],70%
O=c1cc[nH]c(=O)n1N=C1CC(c2ccc(O)cc2)SC(c2ccc(O)cc2)C1 (stereo unspecified),MIC,Candida albicans [4],0.25 mg/L
same,MIC,Cryptococcus neoformans [5],4 mg/L
O=C1N=C(n2[nH]c(=O)ccc2=O)S/C1=N\Nc1ccc(Cl)cc1Cl,MIC,Candida albicans [6],0.6 mg/L
same,MIC,Candida albicans [7],2.1 mg/L
Cc1cc(Nc2ccc(=O)n(-c3ccccc3)n2)no1,MIC,Candida albicans [4],18 mg/L
same,MIC,Aspergillus fumigatus [8],18 mg/L
CCOC(=O)c1c(C)nc2sc3c(-n4nc(C)cc4C)ncnc3c2c1-c1cccs1,inhibition zone (IZ),[9],25 mm
same,inhibition zone (IZ),Aspergillus niger [10],24 mm
CCOC(=O)c1c(C)nc2sc3c(ncn4nc(C)nc34)c2c1-c1cccs1,inhibition zone (IZ),Aspergillus terreus,25 mm
same,inhibition zone (IZ),Candida albicans [11],25 mm
Fc1ccc(-c2nnc3c4ccc(C(F)(F)F)nc4nc(-c4ccco4)n23)c(Cl)c1,MIC,Candida albicans [12],3.9 mg/L
same,MIC,Candida albicans [13],3.9 mg/L
same,MIC,Candida albicans [14],3.9 mg/L
same,MIC,Pichia kudriavzevii [15],3.9 mg/L
same,MIC,Candida albicans [16],3.9 mg/L
same,MIC,Candida parapsilosis [17],3.9 mg/L
same,MIC,Candida albicans [18],3.9 mg/L
same,MIC,Nakaseomyces glabratus [19],3.9 mg/L
same,MIC,Candida albicans [20],3.9 mg/L
O=c1ccc(=O)n(-c2nc(-c3ccc([N+](=O)[O-])cc3)cs2)[nH]1,MIC,Candida albicans [1],3.9 mg/L
O=C1NC(=O)C(=C2NN=C(Nc3nnc(-c4cc([N+](=O)[O-])cc([N+](=O)[O-])c4)s3)S2)C(=O)N1,inhibition zone (IZ),Candida albicans [21],25 mm
same,inhibition zone (IZ),Aspergillus niger [22],23 mm
O=C1N=C(n2[nH]c(=O)ccc2=O)S/C1=N\Nc1ccc(-c2ccc(N/N=C3/SC(n4[nH]c(=O)ccc4=O)=NC3=O)cc2)cc1,MIC,Candida albicans [7],3.1 mg/L
O=c1ccc(=O)n(-c2nc(-c3cccs3)cs2)[nH]1,MIC,Candida albicans [1],1.9 mg/L
same,MIC,Candida albicans [23],3.9 mg/L
Cc1cc(=O)n2nc(C(=O)NN)nc2[nH]1,MIC,Candida albicans [24],4 mg/L
O=C1CS/C(=N\c2nn(-c3ccccc3)nc2C(=O)Nc2cnccn2)N1,MIC,Aspergillus fumigatus [25],< 209 mg/L
O=C(Nc1ccc(F)cc1)N1CCn2c(nnc2C(F)(F)F)C1,MIC,Candida albicans [26],6.25 mg/L
Cc1nc(Oc2ccc(C(=O)Nc3ccc(OC(F)(F)F)cc3)cc2)cc(C(F)(F)F)n1,inhibition at 50 µg/mL,Phomopsis,89%
same,inhibition at 50 µg/mL,Botrytis cinerea,96.7%
same,inhibition at 50 µg/mL,Botryosphaeria dothidea,93.1%
CCOC(=O)c1c(C)nc2sc3c(=O)[nH]cnc3c2c1-c1cccs1,inhibition zone (IZ),[9],25 mm
same,inhibition zone (IZ),Candida albicans [11],25 mm
Clc1ccccc1C(c1ccccc1)(c1ccccc1)n1ccnc1 [CLOTRIMAZOLE],MIC,Microsporum audouinii,4 mg/L
same,MIC,Geotrichum candidum,5 mg/L
same,MIC,Cryptococcus neoformans [5],2 mg/L
same,inhibition zone (IZ),Trichophyton rubrum,14 mm
same,MIC,Aspergillus fumigatus [8],68 mg/L
OC(Cn1cncn1)(Cn1cncn1)c1ccc(F)cc1F [FLUCONAZOLE],inhibition zone (IZ),Rhizopus microsporus,12 mm
same,inhibition zone (IZ),Candida albicans [27],2.1 mm
same,MIC,Candida albicans [24],0.125 mg/L
same,inhibition zone (IZ),Candida albicans [28],10 mm
same,inhibition zone (IZ),Candida albicans [21],22 mm
same,MIC,Aspergillus fumigatus [25],< 212 mg/L
same,inhibition zone (IZ),Saccharomyces cerevisiae [29],11 mm
same,MIC,Nakaseomyces glabratus [30],0.78 mg/L
same,inhibition zone (IZ),Aspergillus flavus,2.9 mm
same,inhibition zone (IZ),Aspergillus niger [22],20 mm
same,inhibition zone (IZ),Saccharomyces cerevisiae [31],13 mm
same,MIC,Pichia kudriavzevii [32],0.78 mg/L
same,MIC,Candida albicans [33],≤ 0.25 mg/L
same,MIC,Candida albicans [34],> 64 mg/L
same,inhibition zone (IZ),Candida albicans [35],24 mm
same,MIC,Candida parapsilosis [36],0.78 mg/L
same,MIC50,Candida albicans [37],0.78 mg/L
same,MIC,Cryptococcus neoformans [38],8 mg/L
Clc1ccc(COC(Cn2ccnc2)c2ccc(Cl)cc2Cl)c(Cl)c1 (stereo unspecified) [MICONAZOLE],MIC,Candida albicans [12],0.39 mg/L
same,MIC,Candida albicans [13],0.39 mg/L
same,MIC,Candida albicans [14],0.39 mg/L
same,MIC,Pichia kudriavzevii [15],0.39 mg/L
same,MIC,Candida albicans [16],0.39 mg/L
same,MIC,Candida parapsilosis [17],0.39 mg/L
same,MIC,Candida albicans [18],0.39 mg/L
same,MIC,Nakaseomyces glabratus [19],0.39 mg/L
same,MIC,Candida albicans [20],0.39 mg/L
Cc1cc(C)nc(Nc2ccccc2)n1 [PYRIMETHANIL],inhibition at 50 µg/mL,Phomopsis,85.1%
same,inhibition at 50 µg/mL,Botrytis cinerea,82.8%
same,inhibition at 50 µg/mL,Botryosphaeria dothidea,84.4%
Clc1ccc(C(Cn2ccnc2)OCc2csc3c(Cl)cccc23)c(Cl)c1 (stereo unspecified) [SERTACONAZOLE],inhibition zone (IZ),Aspergillus niger [39],24 mm
same,inhibition zone (IZ),Candida albicans [40],20 mm
C[C@@H](c1ncncc1F)[C@](O)(Cn1cncn1)c1ccc(F)cc1F [VORICONAZOLE],inhibition zone (IZ),[9],17 mm
same,inhibition zone (IZ),Aspergillus terreus,20 mm
same,inhibition zone (IZ),Aspergillus niger [10],20 mm
